Structures are written as SMILES. Read-outs that look alike come from different tables or passages of the source.

Data set [1] is described as follows: ADME solubility determination at pH 2.0 and pH 7.4. The format is physicochemical. The conditions noted are these: aqueous buffer, thermodynamic from solid, LC-MS/MS. As to the method: Certain Compounds of the Disclosure were assessed for ADME solubility at pH 2.0 and pH 7.4.
Stock solutions were prepared by adding each compound to DMSO at a concentration of 10 mM. Samples were prepared by adding 50 μL of each stock solution to separate vials. The vials were loaded onto a 96-well rack and dried. 500 μL of Phosphate Buffered Saline (PBS) pH 7.4 or PBS pH 2.0 were added into each vial. The vials were then shaken at 25° C. and 1,100 rpm for 24 hours.
After 24 hours, the vials were centrifuged at 3220 G and 25° C. for 30 minutes. The supernatant fluid was analyzed by LC-MS/MS against a standard of known concentration. The solubility of each sample was then calculated using the equation below:
[formula] where DF is the dilution factor.

The nature of data set [2]: Liver microsomal stability, rat liver microsomes. The format is in vitro ADME. The conditions noted are these: 1 μM compound, NADPH, read-out: t1/2 (min) in RLM. On the procedure:
(§1) Certain Compounds of the Disclosure were assessed for ADME metabolic stability in human liver microsomes (HLM) and rat liver microsomes (RLM).
(§2) Samples were prepared by adding 222.5 μL of a master solution (100 mM phosphate buffer and 1 mg/mL liver microsomes (HLM or RLM)) and 25 μL of a 10 mM NADPH solution to incubation plates, which were then warmed for 10 min. Each compound was separately dissolved in DMSO to prepare 10 mM stock solutions, which were then diluted to 100 μM with acetonitrile. A reaction was started by adding 2.5 μL of the 100 μM solution of each compound to separate incubation plates such that the final concentration of for each compound in each plate was 1 μM.
(§3) 25 μL aliquots of each sample were taken at 0.5, 5, 10, 15, 20 and 30 minutes, and the reaction was stopped by adding 5 volumes of cold acetonitrile with IS (100 nM alprazolam, 200 nM caffeine and 100 nM tolbutamide). The samples were then centrifuged at 3,220 G for 30 minutes, and 100 μL of the supernatant fluid was mixed with 100 μL of ultra-pure H2O.
(§4) The samples were then analyzed by LC-MS/MS. Peak areas were determined from extracted ion chromatograms. Slope values (k) were determined by linear regression of the natural logarithm of the remaining percentage of the compound vs. incubation time curve. […] The in vitro half-life (min) was converted into the in vitro intrinsic clearance (in vitro CLint, in μL/min/mg protein) using the following equation: […]
Background: Microsomes from liver hold many membrane-bound enzymes, among them those of drug oxidation.

Data set [3] can be described thus: Liver microsomal stability, human liver microsomes. Type of data set: in vitro ADME. The conditions noted are these: 1 μM compound, NADPH, read-out: t1/2 (min) in HLM. As to the method: as §1, §2, §3, §4
[4] abbreviates: PBS pH 2.0, shaken at 25° C. for 24 hours, read-out: Solubility at pH 2.0.
Setting [5] is: PBS pH 7.4, shaken at 25° C. for 24 hours, read-out: Solubility at pH 7.4.

For the compound `COc1ncnc(C)c1-c1ncc2cnn(Cc3ccc(-n4nc(C(F)(F)F)cc4C)cc3)c2n1` [Example 48], the solubility (commonly the concentration that dissolves in the medium under given conditions) at 24 h was above 10 µM in data set [1] (setting [4]) and below 10 µM in data set [1] (setting [5]). The half-life at 1 μM in data set [2] and in data set [3] was above 25 min each time.

Consider `Cc1cc(C(F)(F)F)nn1-c1ccc(Cn2ncc3cnc(-c4cccnc4C#N)nc32)cc1` [Example 49], for which the solubility at 24 h in data set [1] (setting [4]) and in data set [1] (setting [5]) was below 10 µM throughout. The half-life at 1 μM in data set [2] and in data set [3] was above 25 min throughout.

On to `COc1ncnc(C2CC2)c1-c1ncc2cnn(Cc3ccc(-n4nc(C(F)F)cc4C)cc3)c2n1` [Example 50], for which the solubility at 24 h in data set [1] (setting [4]) and in data set [1] (setting [5]) was below 10 µM each time. The half-life at 1 μM in data set [2] and in data set [3] was above 25 min throughout.

With `CCn1cc(C(F)(F)F)nc1-c1ccc(Cn2ncc3cnc(-c4c(OC)ncnc4C4CC4)nc32)cc1` [Example 51], the solubility at 24 h in data set [1] (setting [4]) was above 10 µM; in data set [1] (setting [5]), below 10 µM. The half-life at 1 μM in data set [2] and in data set [3] was above 25 min in each case.

Regarding `CCn1cc(C(F)(F)F)nc1-c1ccc(Cn2ncc3c(OC)nc(-c4c(OC)ncnc4C4CC4)nc32)cc1` [Example 52], the solubility at 24 h in data set [1] (setting [4]) and in data set [1] (setting [5]) was below 10 µM throughout. The half-life at 1 μM in data set [2] was below 25 min; in data set [3], above 25 min.

In the case of `CCn1cc(C(F)(F)F)nc1-c1ccc(Cn2ncc3c(C)nc(-c4c(OC)ncnc4C4CC4)nc32)cc1` [Example 53], the solubility at 24 h in data set [1] (setting [4]) and in data set [1] (setting [5]) was below 10 µM each time. For the same compound, the half-life at 1 μM in data set [2] and in data set [3] was above 25 min throughout.

Turning to `CCn1cc(C(F)(F)F)nc1-c1ccc(Cn2ncc3cnc(-c4c(OCCF)ncnc4C4CC4)nc32)cc1` [Example 54], the solubility at 24 h in data set [1] (setting [4]) and in data set [1] (setting [5]) was below 10 µM throughout. Moreover, the half-life at 1 μM in data set [2] and in data set [3] was below 25 min in each case.

As to `COc1ncnc(C2CC2)c1-c1ncc2cnn(Cc3ccc(-c4nc(C(F)(F)F)nn4C)cc3)c2n1` [Example 56], the solubility at 24 h in data set [1] (phosphate buffered saline, PBS pH 2.0, shaken at 25° C. for 24 hours, read-out: Solubility at pH 2.0) was above 10 µM; in data set [1] (phosphate buffered saline, PBS pH 7.4, shaken at 25° C. for 24 hours, read-out: Solubility at pH 7.4), below 10 µM. The half-life at 1 μM in data set [2] and in data set [3] was above 25 min throughout.

Consider `COc1ncnc(C2CC2)c1-c1ncc2cnn(Cc3ccc(-c4nc(C(F)(F)F)nn4C)c(F)c3)c2n1` [Example 57], for which the solubility at 24 h in data set [1] (setting [4]) and in data set [1] (setting [5]) was above 10 µM each time. Further, the half-life at 1 μM in data set [2] and in data set [3] was above 25 min throughout.

As to `COc1ncnc(C2CC2)c1-c1ncc2cnn(Cc3ccc(-c4nc(C(F)(F)F)nn4C(C)C)cc3)c2n1` [Example 58], the solubility at 24 h in data set [1] (setting [4]) and in data set [1] (setting [5]) was below 10 µM throughout. For the same compound, the half-life at 1 μM in data set [2] and in data set [3] was above 25 min in each case.

`CCn1cc(C(F)(F)F)nc1-c1ccc(Cn2ncc3cnc(-c4c(OC(C)(C)C)ncnc4C4CC4)nc32)cc1` [Example 59]: the solubility at 24 h in data set [1] (setting [4]) and in data set [1] (setting [5]) was below 10 µM each time. The half-life at 1 μM in data set [2] and in data set [3] was below 25 min in each case.

With `CCn1cc(C(F)(F)F)nc1-c1ccc(Cn2ncc3cnc(-c4c(OC(F)F)ncnc4C4CC4)nc32)cc1` [Example 61], the solubility at 24 h in data set [1] (setting [4]) and in data set [1] (setting [5]) was below 10 µM in each case. Further, the half-life at 1 μM in data set [2] was below 25 min; in data set [3], above 25 min.

For `CCn1cc(C(F)(F)F)nc1-c1ccc(Cn2ncc3cnc(-c4c(OC5CC5)ncnc4C4CC4)nc32)cc1` [Example 63], the results for the solubility at 24 h in data set [1] (setting [4]) and in data set [1] (setting [5]) were above 10 µM and below 10 µM, respectively. For the same compound, the half-life at 1 μM in data set [2] is below 25 min; in data set [3], above 25 min.

With `CCn1cc(C(F)(F)F)nc1-c1ccc(Cn2ncc3cnc(-c4c(OC5CCC5)ncnc4C4CC4)nc32)cc1` [Example 64], the solubility at 24 h in data set [1] (setting [4]) and in data set [1] (setting [5]) was below 10 µM throughout. Besides, the half-life at 1 μM in data set [2] and in data set [3] was below 25 min each time.

Consider `[2H]C([2H])([2H])Oc1ncnc(C2CC2)c1-c1ncc2cnn(Cc3ccc(-c4nc(C(F)(F)F)cn4CC)cc3)c2n1` [Example 67], for which the solubility at 24 h in data set [1] (setting [4]) is above 10 µM; in data set [1] (setting [5]), below 10 µM. Moreover, the half-life at 1 μM in data set [2] and in data set [3] was above 25 min in each case.

Turning to `CCn1cc(C(F)(F)F)nc1-c1ccc(Cn2ncc3cnc(-c4c(C5CC5)cnn4CC)nc32)cc1` [Example 68], the solubility at 24 h in data set [1] (setting [4]) and in data set [1] (setting [5]) was below 10 µM each time. The half-life at 1 μM in data set [2] and in data set [3] was below 25 min each time.

Regarding `COc1ncnc(C2CC2)c1-c1ncc2cnn(Cc3ccc(-c4nc(C#N)cn4C)cc3)c2n1` [Example 69], the solubility at 24 h in data set [1] (setting [4]) and in data set [1] (setting [5]) was above 10 µM in each case. Further, the half-life at 1 μM in data set [2] and in data set [3] was below 25 min in each case.

For the compound `COc1ncnc(C2CC2)c1-c1ncc2cnn(Cc3ccc(-n4nc(C#N)cc4OC)cc3)c2n1` [Example 70], the solubility at 24 h in data set [1] (setting [4]) and in data set [1] (setting [5]) was below 10 µM each time. Also, the half-life at 1 μM in data set [2] was below 25 min; in data set [3] it was above 25 min.

For `COc1ncnc(C2CC2)c1-c1ncc2cnn(Cc3ccc(-n4nc(C(F)(F)F)cc4C#N)cc3)c2n1` [Example 71], the solubility at 24 h in data set [1] (setting [4]) and in data set [1] (setting [5]) was below 10 µM each time. For the same compound, the half-life at 1 μM in data set [2] and in data set [3] was above 25 min throughout.

Regarding `COc1cn(C(C)C)c(-c2ccc(Cn3ncc4cnc(-c5c(OC)ncnc5C5CC5)nc43)cc2)n1` [Example 74], the solubility at 24 h in data set [1] (setting [4]) and in data set [1] (setting [5]) was above 10 µM throughout. Besides, the half-life at 1 μM in data set [2] and in data set [3] was below 25 min throughout.

With `CCn1cc(C(F)(F)F)nc1-c1ccc(Cn2ncc3cnc(-c4c(OC)ncnc4C4CC4)nc32)cn1` [Example 75], the solubility at 24 h in data set [1] (setting [4]) and in data set [1] (setting [5]) was below 10 µM throughout. Further, the half-life at 1 μM in data set [2] and in data set [3] was above 25 min each time.

Regarding `CCOc1cc(C(F)(F)F)nn1-c1ccc(Cn2ncc3cnc(-c4c(OC)ncnc4C4CC4)nc32)cc1` [Example 76], the solubility at 24 h in data set [1] (setting [4]) and in data set [1] (setting [5]) was below 10 µM in each case. Moreover, the half-life at 1 μM in data set [2] and in data set [3] was above 25 min each time.

Take `COCCOc1cc(C(F)(F)F)nn1-c1ccc(Cn2ncc3cnc(-c4c(OC)ncnc4C4CC4)nc32)cc1` [Example 77]: the solubility at 24 h in data set [1] (setting [4]) and in data set [1] (setting [5]) was below 10 µM in each case. In addition, the half-life at 1 μM in data set [2] and in data set [3] was below 25 min throughout.

`COc1ncnc(C2CC2)c1-c1ncc2cnn(Cc3ccc(-n4nc(C(F)(F)F)cc4OCCO)cc3)c2n1` [Example 78]: the solubility at 24 h in data set [1] (setting [4]) and in data set [1] (setting [5]) was below 10 µM each time. The half-life at 1 μM in data set [2] and in data set [3] was above 25 min in each case.

For the compound `COc1ncnc(C2CC2)c1-c1ncc2cnn(Cc3ccc(-n4nc(C(F)(F)F)cc4OC)nc3)c2n1` [Example 79], the solubility at 24 h in data set [1] (setting [4]) and in data set [1] (setting [5]) was below 10 µM in each case. For the same compound, the half-life at 1 μM in data set [2] and in data set [3] was above 25 min in each case.

With `COc1cnn(C2CC2)c1-c1ncc2cnn(Cc3ccc(-c4nc(C(F)(F)F)cn4C)cc3)c2n1` [Example 81], the solubility at 24 h in data set [1] (setting [4]) and in data set [1] (setting [5]) was below 10 µM in each case. The half-life at 1 μM in data set [2] and in data set [3] was below 25 min throughout.

Take `CCn1cc(C(F)(F)F)nc1-c1ccc(Cn2ncc3cnc(-c4c(OC)cnn4C4CC4)nc32)cc1` [Example 82]: the solubility at 24 h in data set [1] (setting [4]) and in data set [1] (setting [5]) was below 10 µM each time. In addition, the half-life at 1 μM in data set [2] and in data set [3] was below 25 min throughout.

Take `COc1cnn(C2CC2)c1-c1ncc2cnn(Cc3ccc(-c4nc(C(F)(F)F)cn4C(C)C)cc3)c2n1` [Example 83]: the results for the solubility at 24 h in data set [1] (setting [4]) and in data set [1] (setting [5]) were above 10 µM and below 10 µM, respectively. Besides, the half-life at 1 μM in data set [2] and in data set [3] was below 25 min throughout.

For the origin of these results see patent US11485736B2 (KSQ Therapeutics, Inc., priority 2018, dated 2022).
